Data reported in patent US5208248A, “Indazole-substituted five-membered heteroaromatic compounds” (Merck Sharpe & Dohme, Ltd., priority 1991, dated 1993).
Counter-ions that a name gives are not always drawn.

Target: T1, 5-HT1 -like receptor (Oryctolagus cuniculus, UniProt P49144)
T1 construct: contraction of the saphenous vein of New Zealand White rabbits; from tissue; host or cells: saphenous vein of New Zealand White rabbits
Assay: Agonist-mediated contraction of rabbit saphenous vein
Set-up: species or system New Zealand White rabbits
Settings: from plots of percentage 5-HT (1 μm) response against agonist concentration, read-out: pEC50 (-log10 EC50), agonist potency (converted)
Procedure: The activity of test compounds as agonists of the 5-HT1 -like receptor was measured in terms of their ability to mediate contraction of the saphenous vein of New Zealand White rabbits, using the procedure described in Arch. Pharm., 1990, 342, 111. Agonist potencies were calculated as -log10 EC50 (pEC50) values, from plots of percentage 5-HT (1 μm) response against the concentration of the agonist.

T1 sequence (P49144 whole entry): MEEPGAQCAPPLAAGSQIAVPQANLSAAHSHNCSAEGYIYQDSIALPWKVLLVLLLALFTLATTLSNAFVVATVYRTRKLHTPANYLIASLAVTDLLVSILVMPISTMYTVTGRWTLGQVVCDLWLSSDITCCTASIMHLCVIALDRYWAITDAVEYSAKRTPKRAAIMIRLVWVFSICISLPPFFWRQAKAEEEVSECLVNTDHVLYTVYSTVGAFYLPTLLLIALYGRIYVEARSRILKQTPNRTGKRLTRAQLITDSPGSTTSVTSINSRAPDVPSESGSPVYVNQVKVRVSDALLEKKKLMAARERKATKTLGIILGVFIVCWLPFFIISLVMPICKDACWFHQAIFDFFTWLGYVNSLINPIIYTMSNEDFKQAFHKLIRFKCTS

`Cc1noc(-c2ccc3[nH]nc(CCN)c3c2)n1` [Example 2, 2-[5-(3-Methyl-1,2,4-oxadiazol-5-yl)-1H-indazol-3-yl])ethylamine hydrogen oxalate] gave an EC50 of at most 10 µM.
